Results on 20 molecules are retold here after patent publication US11078198B2 (BRISTOL-MYERS SQUIBB COMPANY, priority 2017, dated 2021).

The test has as its target T1, human FXR (Homo sapiens, UniProt Q96RI1).
T1 construct: expressed in transfected cells; host or cells: HEK293 cells stably carrying a 5xGal4-response-element firefly luciferase reporter, transiently transfected with pcDNA3.1-Gal4-FXR
T1 sequence (Q96RI1 262-486 limits assumed): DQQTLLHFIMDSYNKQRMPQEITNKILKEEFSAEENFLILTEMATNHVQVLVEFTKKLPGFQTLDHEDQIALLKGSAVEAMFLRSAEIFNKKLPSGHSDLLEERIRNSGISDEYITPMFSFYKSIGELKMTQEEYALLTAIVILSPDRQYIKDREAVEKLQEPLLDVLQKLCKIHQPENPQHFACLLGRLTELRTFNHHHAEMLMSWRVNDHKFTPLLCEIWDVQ
Kind of test: transient human FXR/Gal4-luciferase reporter assay. The test is classed as cell-based. The following applies: Gal4-hFXR transfected HEK293 reporter cells; relative to 8 μM GW-4064. The protocol: A Gal4-hFXR fusion construct reporter system was used as the primary assay to characterize compound activity. A construct including 5 copies of the Gal4 promoter response element upstream of a firefly luciferase reporter cDNA was stably expressed in HEK293 cells. This reporter cell line was maintained in Dulbecco's Modified Eagle's medium (DMEM; Gibco) supplemented with 1% penicillin-streptomycin (P/S) solution, 500 μg/mL Zeocin and 10% charcoal/dextran-treated fetal bovine serum (cs-FBS) at 37° C. in a humidified 5% CO2 atmosphere. Another plasmid was constructed in which the human cytomegalovirus promoter in the pcDNA3.1 vector directs the expression of the cDNA encoding a fusion protein comprised of the DNA binding domain from the Gal4 transcription factor fused to the ligand binding domain from human FXR.
The day prior to transfection, the reporter cells in culture are detached from the plate with trypsin and plated into a T75 flask at a sufficient density to achieve approximately 90% confluence the next morning. The transfection reagents are prepared by separately diluting 25 μg of the pcDNA3.1-Gal4-FXR plasmid into 1.87 mL of Opti-MEM (Thermo-Fisher), and 40 μL of Lipofectamine 2000 (Thermo-Fisher) into 1.87 mL of Opti-MEM, and then adding the diluted DNA solution into the diluted Lipofectamine 2000 solution and incubating at room temperature for 15-20 minutes. The mixture is further diluted with 10 mL of a solution comprised of DMEM, 10% cs-FBS, and 1% P/S immediately prior to transferring to the cells. The maintenance culture media is aspirated from the cells and the final transfection mixture is added before the cells are incubated overnight at 37° C. in a humidified 5% CO2 atmosphere. This protocol can be scaled up, and the transiently transfected cells can be cryopreserved in an assay-ready format.
For compound testing, 100 nL of the compounds (serial dilutions in DMSO) are dispensed with an Echo acoustic dispenser (Labcyte) into the wells of a Corning/Costar clear bottom 384-well white plate. The transfected cells are harvested, counted, and diluted such that 10-25,000 cells in 25 μL are plated into each well of the 384-well compound assay plate. The compound-treated cells are incubated overnight at 37° C. in a humidified 5% CO2 atmosphere.
For orientation: In a reporter assay the amount or activity of a reporter protein is the signal.
Broadly, the EC50 is the concentration at which the effect is half-maximal. Lower therefore signals higher potency in that assay. Turning to `O=C(O)c1cnc(N2CCC3(C=C(c4c(-c5c(Cl)cccc5Cl)noc4C4CC4)C3)CC2)c(F)c1` [Example 28, 6-(2-(5-Cyclopropyl-3-(2,6-dichlorophenyl)isoxazol-4-yl)-7-azaspiro[3.5]non-1-en-7-yl)-5-fluoronicotinic acid], the EC50 was 453 nM.
The same measure for `O=C(O)c1ccc(N2CCC3(C=C(c4c(-c5ccccc5C(F)(F)F)noc4C4CC4)C3)CC2)nc1` [Example 30, 6-(2-(5-Cyclopropyl-3-(2-(trifluoromethyl)phenyl)isoxazol-4-yl)-7-azaspiro[3.5]non-1-en-7-yl) nicotinic acid]: 110 nM; for `O=C(O)CNC(=O)c1ccc(N2CCC3(C=C(c4c(-c5ccccc5C(F)(F)F)noc4C4CC4)C3)CC2)nc1` [Example 31, (6-(2-(5-Cyclopropyl-3-(2-(trifluoromethyl)phenyl)isoxazol-4-yl)-7-azaspiro[3.5]non-1-en-7-yl)nicotinoyl)glycine]: 5300 nM; for `O=C(O)CNC(=O)c1cc(F)c2nc(N3CCC4(C=C(c5c(-c6ccccc6C(F)(F)F)noc5C5CC5)C4)CC3)sc2c1` [Example 32, (2-(2-(5-Cyclopropyl-3-(2-(trifluoromethyl)phenyl)isoxazol-4-yl)-7-azaspiro[3.5]non-1-en-7-yl)-4-fluorobenzo[d]thiazole-6-carbonyl)glycine]: 1500 nM.
The same measure for `O=C(O)c1cc(F)c2nc(N3CCC4(CC3)CC(O)(c3c(-c5c(Cl)cccc5Cl)noc3C3CC3)C4)sc2c1` [Example 33, 2-(2-(5-Cyclopropyl-3-(2,6-dichlorophenyl)isoxazol-4-yl)-2-hydroxy-7-azaspiro[3.5]nonan-7-yl)-4-fluorobenzo[d]thiazole-6-carboxylic acid]: 4800 nM; for `O=C(O)c1cc(F)c2nc(N3CC4(C=C(c5c(-c6ccccc6C(F)(F)F)noc5C5CC5)C4)C3)sc2c1` [Example 34, 2-(6-(5-cyclopropyl-3-(2-(trifluoromethyl)phenyl)isoxazol-4-yl)-2-azaspiro[3.3]hept-5-en-2-yl)-4-fluorobenzo[d]thiazole-6-carboxylic acid]: 400 nM; for `O=C(O)c1ccc(N2CC3(C=C(c4c(-c5ccccc5C(F)(F)F)noc4C4CC4)C3)C2)nc1` [Example 35, 6-(6-(5-cyclopropyl-3-(2-(trifluoromethyl)phenyl)isoxazol-4-yl)-2-azaspiro[3.3]hept-5-en-2-yl)nicotinic acid]: 4300 nM.
In turn, `O=C(O)c1cc(F)c2nc(N3CCC4(CC3)CC(c3c(-c5ccccc5C(F)(F)F)noc3C3CC3)C4)sc2c1` [Example 36, 2-(2-(5-cyclopropyl-3-(2-(trifluoromethyl)phenyl)isoxazol-4-yl)-7-azaspiro[3.5]nonan-7-yl)-4-fluorobenzo[d]thiazole-6-carboxylic acid] had an EC50 of 116 nM.
As for `O=C(O)c1ccc(N2CCC3(CC2)CC(c2c(-c4ccccc4C(F)(F)F)noc2C2CC2)C3)nc1` [Example 37], the figure is 1400 nM; as for `CCOC(=O)c1cc(F)c2nc(N3[C@@H]4CC[C@H]3C[C@@]3(COC(c5c(-c6c(Cl)cccc6Cl)noc5C5CC5)O3)C4)sc2c1` (stereo partly drawn) [Example 40, Ethyl 2-((1R,3S,5S)-2′-(5-cyclopropyl-3-(2,6-dichlorophenyl)isoxazol-4-yl)-8-azaspiro[bicyclo[3.2.1]octane-3,4′-[1,3]dioxolan]-8-yl)-4-fluorobenzo[d]thiazole-6-carboxylate], 3400 nM; as for `O=C(O)c1cc(F)c2nc(N3[C@@H]4CC[C@H]3CC3(COC(c5c(-c6c(Cl)cccc6Cl)noc5C5CC5)O3)C4)sc2c1` (stereo partly drawn) [Example 41, 2-((1R,5S)-2′-(5-cyclopropyl-3-(2,6-dichlorophenyl)isoxazol-4-yl)-8-azaspiro[bicyclo[3.2.1]octane-3,4′-[1,3]dioxolan]-8-yl)-4-fluorobenzo[d]thiazole-6-carboxylic acid], 1700 nM.
`O=C(O)c1cc(F)c2nc(N3CCC4(CC3)COC(c3c(-c5ccccc5OC(F)(F)F)noc3C3CC3)O4)sc2c1` (centres unmarked) [Example 42, 2-(2-(5-cyclopropyl-3-(2-(trifluoromethoxy)phenyl)isoxazol-4-yl)-1,3-dioxa-8-azaspiro[4.5]decan-8-yl)-4-fluorobenzo[d]thiazole-6-carboxylic acid] had an EC50 of 1000 nM. Against the preceding molecule, the EC50 is about 1.7-fold lower.
The molecule `O=C(O)c1ccc(N2CCC3(CC2)COC(c2c(-c4ccccc4OC(F)(F)F)noc2C2CC2)O3)nc1` (centres unmarked) [Example 43, 6-(2-(5-Cyclopropyl-3-(2-(trifluoromethoxy)phenyl)isoxazol-4-yl)-1,3-dioxa-8-azaspiro[4.5]decan-8-yl)nicotinic acid] gave an EC50 of 5300 nM.
As for `O=C(O)c1cccc(N2CCC3(CC2)COC(c2c(-c4ccccc4OC(F)(F)F)noc2C2CC2)O3)n1` (centres unmarked) [Example 44, 6-(2-(5-cyclopropyl-3-(2-(trifluoromethoxy)phenyl)isoxazol-4-yl)-1,3-dioxa-8-azaspiro[4.5]decan-8-yl)picolinic acid], the figure is 5000 nM.
The same measure for `Cc1cc(C(=O)O)cc2sc(N3CCC4(C=C(c5c(-c6c(Cl)cccc6Cl)noc5C5CC5)C4)CC3)nc12` [Example 45, 2-(2-(5-Cyclopropyl-3-(2,6-dichlorophenyl)isoxazol-4-yl)-7-azaspiro[3.5]non-1-en-7-yl)-4-methylbenzo[d]thiazole-6-carboxylic acid]: 11 nM; for `O=C(O)c1cc(F)c2nc(N3CCC4(C=C(c5c(-c6ncccc6Cl)noc5C5CC5)C4)CC3)sc2c1` [Example 46, 2-(2-(3-(3-Chloropyridin-2-yl)-5-cyclopropylisoxazol-4-yl)-7-azaspiro[3.5]non-1-en-7-yl)-4-fluorobenzo[d]thiazole-6-carboxylic acid]: 200 nM; for `O=C(O)c1cc(F)c2nc(N3CCC4(C=C(c5c(-c6c(Cl)cc(F)cc6Cl)noc5C5CC5)C4)CC3)sc2c1` [Example 48, 2-(2-(5-Cyclopropyl-3-(2,6-dichloro-4-fluorophenyl)isoxazol-4-yl)-7-azaspiro[3.5]non-1-en-7-yl)-4-fluorobenzo[d]thiazole-6-carboxylic acid]: 115 nM.
As for `CC(C)c1onc(-c2c(Cl)cccc2Cl)c1C1=CC2(CCN(c3nc4c(F)cc(C(=O)O)cc4s3)CC2)C1` [Example 49, 2-(2-(3-(2,6-Dichlorophenyl)-5-isopropylisoxazol-4-yl)-7-azaspiro[3.5]non-1-en-7-yl)-4-fluorobenzo[d]thiazole-6-carboxylic acid], the figure is 57 nM; as for `O=C(O)c1cc(OC(F)(F)F)c2nc(N3CCC4(C=C(c5c(-c6c(Cl)cncc6Cl)noc5C5CC5)C4)CC3)sc2c1` [Example 50, 2-(2-(5-Cyclopropyl-3-(3,5-dichloropyridin-4-yl)isoxazol-4-yl)-7-azaspiro[3.5]non-1-en-7-yl)-4-(trifluoromethoxy)benzo[d]thiazole-6-carboxylic acid], 11 nM.
As for `COc1cc2nc(N3CCC4(C=C(c5c(-c6c(Cl)cncc6Cl)noc5C5CC5)C4)CC3)sc2cc1C(=O)O` [Example 51, 2-(2-(5-Cyclopropyl-3-(3,5-dichloropyridin-4-yl)isoxazol-4-yl)-7-azaspiro[3.5]non-1-en-7-yl)-5-methoxybenzo[d]thiazole-6-carboxylic acid], the EC50 was 72 nM. This EC50 lies about 6.5-fold higher than the previous one.
